Experimental data published in patent US7771712B2, “Composition for attracting blood sucking arthropods and fruit flies” (priority 2002, dated 2010).

Test system: female A. aegypti
Experiment: Y-tube olfactometer, single compound added to index finger scent against pure finger
Type: in vivo, Aedes aegypti
Experimental: In this example, the effect of adding certain compounds to the scent of a finger of a human volunteer was tested, using the set-up as described for example 1. The right and left index finger of each test person were tested in direct competition with simultaneous addition of a single compound to one finger; Martina (A) is highly, Martin (B) medium, and Doris (C) low attractive. The test components were alternately added to the right or to the left finger, respectively. Bars (means of 16 trials±S.E.M.) represent the percentage of mosquitoes trapped in the respective upwind chamber. Black bars represent the pure finger, white bars the mixture of finger plus the odor stimulus indicated below the bar; stimulus labels as described in FIG. 3A; asterisks indicate a significant preference (P<0.05, t-test for paired samples).
A) is a top view of the olfactometer for testing mosquitoes' odour preference. The spatial distribution of odourants in the air are outlined according to the appearance of TiCl4 smoke, which was injected into the olfactometer instead of the odour stimulus. In the arms of the olfactometer the smoke was homogeneous distributed^20. More turbulent odour eddies and filaments emerged in the rectangular chamber, although a steep gradient between both air streams can still be observed in the joined straight tube. For each test, 20 female A. aegypti mosquitoes were used from cultures of Bayer AG in Monheim, 5-15 days old, which had no blood meal before. Details of the olfactometer and the experimental procedure are described elsewhere (Geier, M. & Boeckh, J. Entomol. exp. appl. 92, 9-19 (1999); Geier, M., Bosch, O. J. & Boeckh, J. Chem. Sens. 24, 647-653 (1999)).
At stimulus onset, 20 mosquitoes in the start chamber are set free to fly through the olfactometer. During their zig zag flight through the straight tube they encounter alternately air streams from either arm. Following the favoured air stream during upwind flight the mosquitoes enter the respective upwind chamber where they are counted 30 s after stimulus onset. […]

## CCCCCC(=O)O [capronic acid, Caproic acid]
FIG. 4 C, low attractive person, all concentrations
  Attractiveness of finger scent plus compound against pure finger: more attractive

## CC(=O)O [acetic acid, Acetic acid]
Up to 50-fold higher concentration than in the standard blend, any of the persons
  Attractiveness of finger scent plus compound against pure finger: did not change the attractiveness

## N [Ammonia+100, Ammonia]
FIG. 4 A, highly attractive person
  Attractiveness of finger scent plus compound against pure finger: less attractive
